# From ChEMBL document CHEMBL3885861, “Open TG-GATES”
# Species: Rattus norvegicus
# Assay: Open TG-GATES - Regimen: Daily Repeat
# Format: toxicity, organism-based, Sprague-Dawley
# Set-up: regimen Daily Repeat, gender Male, age 6 weeks
# Settings: in vivo, po, 0 mg/kg, route gavage, dose level Control; for APTT / Bas / Eos / Fbg / Hb / Ht / Lym / MCH / MCHC / MCV / Mono / Neu / PT / Plat / RBC / Ret / WBC: tissue Blood; for KIDNEY_L / KIDNEY_R / KIDNEY_TOTAL: tissue Kidney; for LIVER: tissue Liver; for A/G / ALP / ALT / AST / BUN / CRE / Ca / Cl / DBIL / GLC / IP / K / LDH / Na / PL / RALB / TBIL / TC / TG / TP / gamma-GTP: tissue Plasma
smiles,measurement,setting,value
CCO [ALCOHOL],TERMINAL_BW,"72 h, time 3 day",232.9 g
same,APTT,"72 h, time 3 day",17.2 s
same,Bas,"72 h, time 3 day",0%
same,Eos,"72 h, time 3 day",1%
same,Fbg,"72 h, time 3 day",205.6 mg/dL
same,Hb,"72 h, time 3 day",14.1 g/dL
same,Ht,"72 h, time 3 day",41.9%
same,Lym,"72 h, time 3 day",77%
same,MCH,"72 h, time 3 day",21.5 pg
same,MCHC,"72 h, time 3 day",33.7%
same,MCV,"72 h, time 3 day",63.8 fL
same,Mono,"72 h, time 3 day",6%
same,Neu,"72 h, time 3 day",16%
same,PT,"72 h, time 3 day",11 s
same,Plat,"72 h, time 3 day",112.5 x10_4/uL
same,RBC,"72 h, time 3 day",656.4 x10_4/ul
same,Ret,"72 h, time 3 day",6.7%
same,WBC,"72 h, time 3 day",82.3 x10_2/uL
same,KIDNEY_L,"72 h, time 3 day",1 g
same,KIDNEY_R,"72 h, time 3 day",1 g
same,KIDNEY_TOTAL,"72 h, time 3 day",2 g
same,LIVER,"72 h, time 3 day",11.2 g
same,A/G,"72 h, time 3 day",2.2
same,ALP,"72 h, time 3 day",935.2 IU/L
same,ALT,"72 h, time 3 day",39.6 IU/L
same,AST,"72 h, time 3 day",61.8 IU/L
same,BUN,"72 h, time 3 day",19.6 mg/dL
same,CRE,"72 h, time 3 day",0.6 mg/dL
same,Ca,"72 h, time 3 day",10.9 mg/dL
same,Cl,"72 h, time 3 day",104.2 meq/L
same,DBIL,"72 h, time 3 day",0.04 mg/dL
same,GLC,"72 h, time 3 day",210.6 mg/dL
same,IP,"72 h, time 3 day",8.7 mg/dL
same,K,"72 h, time 3 day",4.6 meq/L
same,LDH,"72 h, time 3 day",75.8 IU/L
same,Na,"72 h, time 3 day",141 meq/L
same,PL,"72 h, time 3 day",160.6 mg/dL
same,RALB,"72 h, time 3 day",3.9 g/dL
same,TBIL,"72 h, time 3 day",0.3 mg/dL
same,TC,"72 h, time 3 day",83.8 mg/dL
same,TG,"72 h, time 3 day",101 mg/dL
same,TP,"72 h, time 3 day",5.7 g/dL
same,gamma-GTP,"72 h, time 3 day",1.2 IU/L
same,TERMINAL_BW,"[…], time 7 day",263.1 g
same,TERMINAL_BW,"[…], time 14 day",302.6 g
same,TERMINAL_BW,"[…], time 28 day",359.3 g
same,APTT,"[…], time 7 day",17 s
same,Bas,"[…], time 7 day",0%
same,Eos,"[…], time 7 day",1.2%
same,Fbg,"[…], time 7 day",212.6 mg/dL
same,Hb,"[…], time 7 day",14.2 g/dL
same,Ht,"[…], time 7 day",42.2%
same,Lym,"[…], time 7 day",84.2%
same,MCH,"[…], time 7 day",20.7 pg
same,MCHC,"[…], time 7 day",33.7%
same,MCV,"[…], time 7 day",61.5 fL
same,Mono,"[…], time 7 day",4%
same,Neu,"[…], time 7 day",10.6%
same,PT,"[…], time 7 day",11.1 s
same,Plat,"[…], time 7 day",127.1 x10_4/uL
same,RBC,"[…], time 7 day",687.8 x10_4/ul
same,Ret,"[…], time 7 day",5.2%
same,WBC,"[…], time 7 day",114.9 x10_2/uL
same,APTT,"[…], time 14 day",19.1 s
same,Bas,"[…], time 14 day",0%
same,Eos,"[…], time 14 day",1%
same,Fbg,"[…], time 14 day",211.2 mg/dL
same,Hb,"[…], time 14 day",15.2 g/dL
same,Ht,"[…], time 14 day",44.7%
same,Lym,"[…], time 14 day",81.4%
same,MCH,"[…], time 14 day",20.3 pg
same,MCHC,"[…], time 14 day",33.9%
same,MCV,"[…], time 14 day",59.9 fL
same,Mono,"[…], time 14 day",4.2%
same,Neu,"[…], time 14 day",13.4%
same,PT,"[…], time 14 day",11.4 s
same,Plat,"[…], time 14 day",110 x10_4/uL
same,RBC,"[…], time 14 day",746.4 x10_4/ul
same,Ret,"[…], time 14 day",4.3%
same,WBC,"[…], time 14 day",102.7 x10_2/uL
same,APTT,"[…], time 28 day",17 s
same,Bas,"[…], time 28 day",0%
same,Eos,"[…], time 28 day",1.6%
same,Fbg,"[…], time 28 day",215.6 mg/dL
same,Hb,"[…], time 28 day",15.4 g/dL
same,Ht,"[…], time 28 day",45.5%
same,Lym,"[…], time 28 day",82%
same,MCH,"[…], time 28 day",19.1 pg
same,MCHC,"[…], time 28 day",33.9%
same,MCV,"[…], time 28 day",56.4 fL
same,Mono,"[…], time 28 day",5.4%
same,Neu,"[…], time 28 day",11%
same,PT,"[…], time 28 day",11.2 s
same,Plat,"[…], time 28 day",114.3 x10_4/uL
same,RBC,"[…], time 28 day",807 x10_4/ul
same,Ret,"[…], time 28 day",8%
same,WBC,"[…], time 28 day",105.1 x10_2/uL
same,KIDNEY_L,"[…], time 7 day",1.1 g
same,KIDNEY_R,"[…], time 7 day",1.2 g
same,KIDNEY_TOTAL,"[…], time 7 day",2.3 g
same,KIDNEY_L,"[…], time 14 day",1.2 g
same,KIDNEY_R,"[…], time 14 day",1.2 g
same,KIDNEY_TOTAL,"[…], time 14 day",2.4 g
same,KIDNEY_L,"[…], time 28 day",1.3 g
same,KIDNEY_R,"[…], time 28 day",1.3 g
same,KIDNEY_TOTAL,"[…], time 28 day",2.6 g
same,LIVER,"[…], time 7 day",11.9 g
same,LIVER,"[…], time 14 day",13.2 g
same,LIVER,"[…], time 28 day",13.9 g
same,A/G,"[…], time 7 day",2.2
same,ALP,"[…], time 7 day",783 IU/L
same,ALT,"[…], time 7 day",33.6 IU/L
same,AST,"[…], time 7 day",62 IU/L
same,BUN,"[…], time 7 day",20.4 mg/dL
same,CRE,"[…], time 7 day",0.5 mg/dL
same,Ca,"[…], time 7 day",10.4 mg/dL
same,Cl,"[…], time 7 day",105.6 meq/L
same,DBIL,"[…], time 7 day",0.006 mg/dL
same,GLC,"[…], time 7 day",197.8 mg/dL
same,IP,"[…], time 7 day",7.5 mg/dL
same,K,"[…], time 7 day",4.7 meq/L
same,LDH,"[…], time 7 day",81.2 IU/L
same,Na,"[…], time 7 day",141.4 meq/L
same,PL,"[…], time 7 day",143.6 mg/dL
same,RALB,"[…], time 7 day",4 g/dL
same,TBIL,"[…], time 7 day",0.4 mg/dL
same,TC,"[…], time 7 day",71.4 mg/dL
same,TG,"[…], time 7 day",108 mg/dL
same,TP,"[…], time 7 day",5.7 g/dL
same,gamma-GTP,"[…], time 7 day",0.8 IU/L
same,A/G,"[…], time 14 day",1.9
same,ALP,"[…], time 14 day",678.2 IU/L
same,ALT,"[…], time 14 day",30 IU/L
same,AST,"[…], time 14 day",61.8 IU/L
same,BUN,"[…], time 14 day",19 mg/dL
same,CRE,"[…], time 14 day",0.5 mg/dL
same,Ca,"[…], time 14 day",10.6 mg/dL
same,Cl,"[…], time 14 day",105.6 meq/L
same,DBIL,"[…], time 14 day",0.028 mg/dL
same,GLC,"[…], time 14 day",204.6 mg/dL
same,IP,"[…], time 14 day",7.3 mg/dL
same,K,"[…], time 14 day",4.4 meq/L
same,LDH,"[…], time 14 day",80.2 IU/L
same,Na,"[…], time 14 day",142.6 meq/L
same,PL,"[…], time 14 day",138.6 mg/dL
same,RALB,"[…], time 14 day",3.8 g/dL
same,TBIL,"[…], time 14 day",0.4 mg/dL
same,TC,"[…], time 14 day",64.4 mg/dL
same,TG,"[…], time 14 day",120.6 mg/dL
same,TP,"[…], time 14 day",5.9 g/dL
same,gamma-GTP,"[…], time 14 day",0.6 IU/L
same,A/G,"[…], time 28 day",1.5
same,ALP,"[…], time 28 day",606.4 IU/L
same,ALT,"[…], time 28 day",32 IU/L
same,AST,"[…], time 28 day",61.2 IU/L
same,BUN,"[…], time 28 day",20.4 mg/dL
same,CRE,"[…], time 28 day",0.6 mg/dL
same,Ca,"[…], time 28 day",10.5 mg/dL
same,Cl,"[…], time 28 day",107 meq/L
same,DBIL,"[…], time 28 day",0 mg/dL
same,GLC,"[…], time 28 day",219.2 mg/dL
same,IP,"[…], time 28 day",6.1 mg/dL
same,K,"[…], time 28 day",4.3 meq/L
same,LDH,"[…], time 28 day",81.2 IU/L
same,Na,"[…], time 28 day",140.8 meq/L
same,PL,"[…], time 28 day",148 mg/dL
same,RALB,"[…], time 28 day",3.7 g/dL
same,TBIL,"[…], time 28 day",0.2 mg/dL
same,TC,"[…], time 28 day",76.2 mg/dL
same,TG,"[…], time 28 day",148.8 mg/dL
same,TP,"[…], time 28 day",6.1 g/dL
same,gamma-GTP,"[…], time 28 day",1.6 IU/L
